Test results from patent publication US20200239587A1, “SENSITIZATION OF TUMORS TO THERAPIES THROUGH ENDOGLIN ANTAGONISM” (Cedars-Sinai Medical Center, priority 2016, published 2020).
Entries after “also recorded” stand apart in the source; their conditions may differ.

Columns and labels:
[1] = tested on: MCF7; assay: Clonogenic survival assay with radiation; assay type: cell-based, human; conditions: breast cancer cell line with intact p53; 1 μg/ml TRC105
Procedure: (§1) Assays were performed on cell lines with p53 null prostate cancer cell line, FIG. 23A) PC3 and two p53 mutant pancreatic cancer cell lines, FIG. 23B) MIAPACA-2 and FIG. 23C) HPAF-II with indicated doses of radiation. Breast cancer cell lines with intact p53, FIG. 23D) MCF7 and mutant yet functional p53, FIG. 23E) MDA-MB23 were however radio-sensitized by the 1 μg/ml TRC105.

[2] = tested on: MDAMB231; assay: Clonogenic survival assay with radiation; assay type: cell-based, human; conditions: breast cancer cell line with mutant yet functional p53; 1 μg/ml TRC105
Procedure: as §1

[3] = tested on: HPAF-II; assay: Clonogenic survival assay with radiation; assay type: cell-based, human; conditions: p53 mutant pancreatic cancer cell line
Procedure: as §1

[4] = tested on: MIAPACA-2; assay: Clonogenic survival assay with radiation; assay type: cell-based, human; conditions: p53 mutant pancreatic cancer cell line
Procedure: as §1

[5] = tested on: PC3; assay: Clonogenic survival assay with radiation; assay type: cell-based, human; conditions: p53 null prostate cancer cell line
Procedure: as §1

[6] = tested on: CW22Rv1 cells; assay: Seahorse-XF mito-stress test; assay type: cell-based, human
Procedure: Cells were analyzed for mito-stress test by Seahorse-XF 168 hours following 4 Gy of radiation in the presence of IgG or TRC105. FIG. 26A) Basal respiration, non-mito respiration, proton leak, spare respiratory capacity, FIG. 26B) extracellular acidification rate (ECAR) and FIG. 26C) mitochondrial dependent ATP production were quantitated using Wave 2.3.0 analysis. Data are reported as mean+/−S.D. of a representative experiment (n=5) of 3 independent experiments. FIGS. 26A-26C, the first/left column depicts 0Gy+IgG, the second column depicts 0Gy+TRC105, the third column depicts 4Gy+IgG and the last/right column depicts 4Gy+TRC105. FIG. 26D) 22Rv1 cells treated with IgG, TRC105 or nicotinamide were irradiated (4 Gy). Total cellular ATP was measured 0, 24, 72, 120, and 168 hours post radiation. Within each group, the left column is IgG, middle column is TRC105 and the right column is nicotinamide. Data are reported as mean+/−S.D. of 3 independent experiments. (***p<0.001, ****p<0.0001).

[7] = tested on: BMP dependent CD105 signaling in 22Rv1; assay: BMP-stimulated phosphorylated-SMAD1/5 and ID1 expression; assay type: cell-based, human; conditions: stimulated with 50 ng/mL BMP
Procedure: FIG. 18A) Cell surface CD105 expression was measured in PC3, C42b, and 22Rv1 72 hours after 4 Gy irradiation treatment by FACS analysis and compared to cells not irradiated (control). FIG. 18B) Cell surface CD105 expression was measured in cell lines following a dose range of irradiation (0, 2, 4, or 6 Gy). FIG. 18C) The durability of cell surface CD105 expression in 22Rv1 was determined 0, 0.5, 4, 8, 24, 48, 72, 120, and 168 hours following 4 Gy irradiation. CD105 cell surface expression fold change was normalized to levels expressed prior to irradiation. FIG. 18D) Western blot for phosphorylated-Smad1/5 was measured in CW22Rv1 cells in the presence or absence of serum starvation and treatment with 50 ng/ml BMP4 or 1 μg/ml TRC105. β-actin expression served as the loading control. FIG. 18E) Annexin-V expression was measured in 22Rv1 cells by FACS analysis 5 days following 4 Gy irradiation in the presence and absence of TRC105. FIG. 18F) Clonogenic assay was measured 10 days following irradiation of CW22Rv1 and C42b cells in a dose range of 0 to 6 Gy in the presence of 1 μg/ml IgG or TRC105. […]
Total RNA was extracted using the RNeasy kit (Qiagen). […] Quantitative RT-PCR was performed with 5 replicates using the Step One Real-Time PCR system (Applied Biosystems). […] For RNA-sequencing, Ion Proton AmpliSeq Transcriptome RNA Sequencing was performed achieving an average of 3M reads. […]

[8] = tested on: prostatic epithelia; assay: Cancer stem cell markers and sphere-forming units; assay type: cell-based; conditions: antagonizing endoglin
[9] = tested on: SFRP1 expression in human NAF and CAF; assay: SFRP1 mRNA expression in NAF and CAF treated with TRC105; assay type: cell-based; conditions: vs IgG
From the text: See also FIG. 15. […] Immunohistochemical localization of CD105 and SFRP1 in benign or PCa tissues are found in blood vessels (v), epithelia (e), and stroma (s), n=4. Scale bar represents 100 μm. FIG. 12E) Epithelial proliferation of human CW22Rv1, in 3D co-cultures with mouse prostatic fibroblasts, were co-stained for EpCam and Ki67 for FACS analysis. […] See also FIG. 16. […] Error bars are mean+/−SD and **p<0.01, ****p<0.0001, compared to control unless otherwise indicated.
CW22Rv1, C42B, and PC3 cells from ATCC were expanded as directed. Prostatectomy specimens from Cedars-Sinai Medical Center or the Greater Los Angeles Veterans Affairs were cultured to generate NAF and CAF cells using the same method, as C57BL/6 mouse wild-type prostatic fibroblasts were grown as previously reported (Franco et al., 2011, Cancer research 71, 1272-1281; Kiskowski et al., 2011, Cancer research 68, 4709-4718). TRC105 and M1043 were provided by TRACON Pharmaceuticals, Inc. (San Diego, Calif.). […]
Total RNA was extracted using the RNeasy kit (Qiagen). […] Quantitative RT-PCR was performed with 5 replicates using the Step One Real-Time PCR system (Applied Biosystems). […] For RNA-sequencing, Ion Proton AmpliSeq Transcriptome RNA Sequencing was performed achieving an average of 3M reads. We mapped an average of 88% of the reads to the human genome with Torrent Suite version 4.4.2.

TRC105: partially humanized monoclonal antibody that blocks BMP signaling; human-specific CD105 (endoglin) neutralizing antibody from Tracon Pharmaceuticals
radiation sensitivity, clonogenic survival [1]: positively sensitized to irradiation; also recorded: radio-sensitized | radiation sensitivity, clonogenic survival [2]: positively sensitized to irradiation; also recorded: radio-sensitized | radiation sensitivity, clonogenic response [3]: neither the HPAF-II nor MIAPACA-2 cell lines treated with radiation showed a change in clonogenic response | radiation sensitivity, clonogenic response [4]: neither the HPAF-II nor MIAPACA-2 cell lines treated with radiation showed a change in clonogenic response | radiation sensitivity, clonogenic survival [5]: no evidence of radiation sensitization | mitochondrial dependent ATP production ([6]; TRC105 alone): depletion of mitochondrial dependent ATP production | spare respiratory capacity ([6]; TRC105 plus 4 Gy vs radiation alone): further decrease in spare respiratory capacity | basal oxidative phosphorylation ([6]; TRC105 plus 4 Gy vs radiation alone, 168 hours): decrease in basal oxidative phosphorylation | glycolysis (extracellular acidification) ([6]; addition of TRC105 in the context of radiation): blocked glycolysis | mitochondrial dependent ATP production ([6]; combination of radiation and TRC105 vs either agent alone): further depletion | minimum dose that effectively blocked phosphorylated-SMAD1/5 activation and expression of ID1 [7]: 1 µg/mL | cancer stem cell markers (CD44, ALDH, Oct4, Sox) and sphere-forming units [8]: down regulated | SFRP1 expression in NAF [9]: no effect | SFRP1 expression in CAF ([9]; p<0.0001): significantly down regulated
